Patent US20260001928A1 (CORTERIA PHARMACEUTICALS, priority 2022, published 2026)
*1 amine or outer side, *2 acyl side, *3 side chain or, on linkers, in order; H or OH if unused. Where a SMILES comes first, the peptide text is derived from it. Side-chain parts run from the residue outwards. [ ]: non-standard residue; d: D form. The star is where a group is joined. C20 diacid = O=C(O)CCCCCCCCCCCCCCCCCCC(=O)*; γGlu = O=C(O)[C@H](CCC(=O)[*:2])N[*:1]; NMeI = CC[C@H](C)[C@H](NC)C(=O)O; Pentanoyl = CCCCC(=O)*; AEEA = NCCOCCOCC(=O)O; Aib = CC(C)(N)C(=O)O

Experiments:
CFR1R receptor = target: T1, CFR1R receptor (Homo sapiens, UniProt P34998); assay: Activity at anti-target CFR1R receptor, cAMP assay in CRF1R-overexpression CHO-K1 cells; assay type: cell-based; settings: 100% = Sauvagine at 100 nM; for EC50: cAMP
T1 construct: host or cells: CHO-K1 (clone 2)
T1 sequence (P34998 24-415): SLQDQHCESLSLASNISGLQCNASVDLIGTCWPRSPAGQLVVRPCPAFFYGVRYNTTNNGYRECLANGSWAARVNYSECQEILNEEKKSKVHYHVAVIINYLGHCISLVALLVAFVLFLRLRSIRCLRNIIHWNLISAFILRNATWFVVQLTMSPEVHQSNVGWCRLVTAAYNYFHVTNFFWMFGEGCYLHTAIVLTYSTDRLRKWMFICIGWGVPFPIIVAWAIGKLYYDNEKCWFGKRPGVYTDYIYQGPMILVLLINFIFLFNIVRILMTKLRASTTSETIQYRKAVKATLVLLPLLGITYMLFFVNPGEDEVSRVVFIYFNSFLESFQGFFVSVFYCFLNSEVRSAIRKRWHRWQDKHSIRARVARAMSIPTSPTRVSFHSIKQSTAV
Procedure, shortened: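 Run as for the TeloHAEC line, except the full-activation control well received Sauvagine (100 nM) and final density was 4000 cells/well. Cells from clone 2 came from frozen aliquots of near-confluent cultures.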

human CRF2a receptor = target: T2, human CRF2a receptor (Homo sapiens, UniProt Q13324); assay: Activity at human CRF2a receptor, cAMP functional assay in TeloHEAC cells; assay type: cell-based; settings: TeloHEAC cells stably expressing human CRF2a receptor, relative to urocortin 2 (100 nM = 100%)
T2 construct: expressed in transfected cells; host or cells: TeloHEAC cells
T2 sequence (Q13324 1-411): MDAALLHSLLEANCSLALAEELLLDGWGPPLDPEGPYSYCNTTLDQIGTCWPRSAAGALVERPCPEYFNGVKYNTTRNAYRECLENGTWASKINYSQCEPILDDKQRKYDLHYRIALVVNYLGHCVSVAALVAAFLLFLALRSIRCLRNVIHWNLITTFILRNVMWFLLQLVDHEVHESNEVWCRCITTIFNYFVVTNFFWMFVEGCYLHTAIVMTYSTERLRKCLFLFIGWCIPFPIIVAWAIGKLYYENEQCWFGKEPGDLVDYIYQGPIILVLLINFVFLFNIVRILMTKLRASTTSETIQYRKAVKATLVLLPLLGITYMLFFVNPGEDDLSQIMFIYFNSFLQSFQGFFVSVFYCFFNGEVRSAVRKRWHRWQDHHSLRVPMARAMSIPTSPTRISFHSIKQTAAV
Procedure, shortened: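 TeloHEAC cells stably expressing human CRF2a (10000 cells/well) were treated with 16-point 1:2 compound dilutions in HBSS/20 mM HEPES with IBMX for 30 min at 37° C. cAMP was read by HTRF (665/620 nm ratio). EC50 was the concentration giving 50% activation, with 100 nM urocortin 2 set as 100%.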

Sprague Dawley rats = assay: Effect on systolic blood pressure, telemetry in Sprague Dawley rats; assay type: in vivo, rat; settings: 0.1 mg/kg SC; for Systolic blood pressure (Mean) % change from baseline, 8 h / Systolic blood pressure (Mean) % change from baseline, 12 h / Systolic blood pressure (Mean) % change from baseline, 24 h: n=2; for Duration of action: last time point with an effect on BP still observed
Description: The effect of the compounds on systolic blood pressure was determined in telemetry studies in Sprague Dawley rats at a dosage of 0.1 mg/kg SC.
The rats were previously implanted with a telemetry device (DSI, Saint-Paul, USA, HD-S10, HD-S11 or HD S21) and allowed to recover for a minimum period of 2 weeks before treatment with vehicle or the different peptides. Blood pressure (BP) was recorded through a catheter inserted into the abdominal aorta. The device body was placed in the abdomen. The animals were allowed to recover from surgery for at least 10 days before the first administration of test drug or vehicle.
The chronically instrumented rats of the telemetry studies were individually housed immediately after surgery and then housed in pairs with a non-instrumented companion after recovery.
Systolic blood pressure was recorded for one hour before treatment (basal period). Thereafter, the subcutaneous administration of the test compound or its vehicle was performed, under continuous recording of the signal up to 48 hours, analysed and expressed as % change from baseline.
Representative data are presented in Table 13 below, in which “Duration of action” indicates the last time point for which an effect on BP was still observed (n=2 animals/peptide)

Row | SMILES | Emax (% I) (CFR1R receptor) | EC50 (CFR1R receptor) [nM] | EC50 (human CRF2a receptor) [nM] | Systolic blood pressure (Mean) % change from baseline, 8 h (Sprague Dawley rats) [%] | Systolic blood pressure (Mean) % change from baseline, 12 h (Sprague Dawley rats) [%] | Systolic blood pressure (Mean) % change from baseline, 24 h (Sprague Dawley rats) [%] | Duration of action (Sprague Dawley rats) [h]
1 | CC[C@H](C)[C@H](NC(C)=O)C(=O)N[C@H](C(=O)N[C@@H](CC(C)C)C(=O)N[C@@H](CO)C(=O)N[C@@H](CC(C)C)C(=O)N[C@@H](CC(=O)O)C(=O)N[C@@H](C(=O)N1CCC[C@H]1C(=O)N[C@H](C(=O)N[C@@H](CCCCN)C(=O)N[C@@H](CC(C)C)C(=O)N[C@@H](CCCCNC(=O)CC[C@H](NC(=O)CCCCCCCCCCCCCCCCCCC(=O)O)C(=O)O)C(=O)N[C@@H](CCCCN)C(=O)N[C@H](C(=O)N[C@@H](CC(C)C)C(=O)N[C@@H](CC(C)C)C(=O)N[C@@H](CCC(=O)O)C(=O)N[C@@H](CCC(N)=O)C(=O)N[C@@H](CCC(=O)O)C(=O)N[C@@H](CCCCN)C(=O)N[C@@H](CCC(N)=O)C(=O)N[C@@H](CCCCN)C(=O)NC(C)(C)C(=O)N[C@@H](CCC(N)=O)C(=O)N[C@@H](CCCNC(=N)N)C(=O)N[C@@H](CCC(=O)O)C(=O)N[C@@H](CCC(N)=O)C(=O)N[C@@H](C)C(=O)N[C@@H](CCC(=O)O)C(=O)N[C@H](C(=O)N[C@@H](CC(N)=O)C(=O)NC(C)(C)C(=O)N[C@@H](CCC(N)=O)C(=O)N[C@H](C(=O)N[C@@H](CC(C)C)C(=O)N[C@@H](C)C(=O)N[C@@H](CCC(N)=O)C(=O)N[C@H](C(N)=O)C(C)C)[C@@H](C)CC)[C@@H](C)O)[C@@H](C)CC)[C@@H](C)CC)C(C)C)C(C)C [compound 209] (Ac-IVLSLD[dV]PIKLK([γGlu-C20 diacid])KILLEQEKQK[Aib]QREQAETN[Aib]QILAQV-NH2) | 21 | > 250 | 0.22 | −18 | −11 | 3 | 23
2 | CCCCC(=O)N[C@H](C(=O)N[C@@H](CC(C)C)C(=O)N[C@@H](CO)C(=O)N[C@@H](CC(C)C)C(=O)N[C@@H](CC(=O)O)C(=O)N[C@@H](C(=O)N1CCC[C@H]1C(=O)N[C@H](C(=O)N[C@@H](CCCCN)C(=O)N[C@@H](CC(C)C)C(=O)N[C@@H](CCCCNC(=O)CC[C@H](NC(=O)CCCCCCCCCCCCCCCCCCC(=O)O)C(=O)O)C(=O)N[C@@H](CCCCN)C(=O)N[C@H](C(=O)N[C@@H](CC(C)C)C(=O)N[C@@H](CC(C)C)C(=O)N[C@@H](CCC(=O)O)C(=O)N[C@@H](CCC(N)=O)C(=O)N[C@@H](CCC(=O)O)C(=O)N[C@@H](CCCCN)C(=O)N[C@@H](CCC(N)=O)C(=O)N[C@@H](CCCCN)C(=O)NC(C)(C)C(=O)N[C@@H](CCC(N)=O)C(=O)N[C@@H](CCCNC(=N)N)C(=O)N[C@@H](CCC(=O)O)C(=O)N[C@@H](CCC(N)=O)C(=O)N[C@@H](C)C(=O)N[C@@H](CCC(=O)O)C(=O)N[C@H](C(=O)N[C@@H](CC(N)=O)C(=O)NC(C)(C)C(=O)N[C@@H](CCC(N)=O)C(=O)N[C@H](C(=O)N[C@@H](CC(C)C)C(=O)N[C@@H](C)C(=O)N[C@@H](CCC(N)=O)C(=O)N[C@H](C(N)=O)C(C)C)[C@@H](C)CC)[C@@H](C)O)[C@@H](C)CC)[C@@H](C)CC)C(C)C)C(C)C [compound 220] (Pentanoyl-VLSLD[dV]PIKLK([γGlu-C20 diacid])KILLEQEKQK[Aib]QREQAETN[Aib]QILAQV-NH2) | 32 | > 250 | 0.27 | −17 | −14 | −11 | >24
3 | CC[C@H](C)[C@H](NC)C(=O)N[C@H](C(=O)N[C@@H](CC(C)C)C(=O)N[C@@H](CO)C(=O)N[C@@H](CC(C)C)C(=O)N[C@@H](CC(=O)O)C(=O)N[C@@H](C(=O)N1CCC[C@H]1C(=O)N[C@H](C(=O)NCC(=O)N[C@@H](CC(C)C)C(=O)N[C@@H](CCCCNC(=O)CC[C@H](NC(=O)CCCCCCCCCCCCCCCCCCC(=O)O)C(=O)O)C(=O)N[C@@H](CCCCN)C(=O)N[C@H](C(=O)N[C@@H](CC(C)C)C(=O)N[C@@H](CC(C)C)C(=O)N[C@@H](CCC(=O)O)C(=O)N[C@@H](CCC(N)=O)C(=O)N[C@@H](CCC(=O)O)C(=O)N[C@@H](CCCCN)C(=O)N[C@@H](CCC(N)=O)C(=O)N[C@@H](CCCCN)C(=O)N[C@@H](CCCCN)C(=O)N[C@@H](CCC(N)=O)C(=O)N[C@@H](CCCNC(=N)N)C(=O)N[C@@H](CCC(=O)O)C(=O)N[C@@H](CCC(N)=O)C(=O)N[C@@H](C)C(=O)N[C@@H](CCC(=O)O)C(=O)N[C@H](C(=O)N[C@@H](CC(N)=O)C(=O)NC(C)(C)C(=O)N[C@@H](CCC(N)=O)C(=O)N[C@H](C(=O)N[C@@H](CC(C)C)C(=O)N[C@@H](C)C(=O)N[C@@H](CCC(N)=O)C(=O)N[C@H](C(N)=O)C(C)C)[C@@H](C)CC)[C@@H](C)O)[C@@H](C)CC)[C@@H](C)CC)C(C)C)C(C)C [compound 229] (H-[NMeI]VLSLD[dV]PIGLK([γGlu-C20 diacid])KILLEQEKQKKQREQAETN[Aib]QILAQV-NH2) | 43 | – | 0.11 | −12 | −9 | −5 | >24
4 | CC[C@H](C)[C@H](NC(C)=O)C(=O)N[C@H](C(=O)N[C@@H](CC(C)C)C(=O)N[C@@H](CO)C(=O)N[C@@H](CC(C)C)C(=O)N[C@@H](CC(=O)O)C(=O)N[C@@H](C(=O)N1CCC[C@H]1C(=O)N[C@H](C(=O)N[C@@H](CCCCN)C(=O)N[C@@H](CC(C)C)C(=O)N[C@@H](CCCCNC(=O)COCCOCCNC(=O)CC[C@H](NC(=O)CCCCCCCCCCCCCCCCCCC(=O)O)C(=O)O)C(=O)N[C@@H](CCCCN)C(=O)N[C@H](C(=O)N[C@@H](CC(C)C)C(=O)N[C@@H](CC(C)C)C(=O)N[C@@H](CCC(=O)O)C(=O)N[C@@H](CCC(N)=O)C(=O)N[C@@H](CCC(=O)O)C(=O)N[C@@H](CCCCN)C(=O)N[C@@H](CCC(N)=O)C(=O)N[C@@H](CCCCN)C(=O)N[C@@H](CCCCN)C(=O)N[C@@H](CCC(N)=O)C(=O)N[C@@H](CCCNC(=N)N)C(=O)N[C@@H](CCC(=O)O)C(=O)N[C@@H](CCC(N)=O)C(=O)N[C@@H](C)C(=O)N[C@@H](CCC(=O)O)C(=O)N[C@H](C(=O)N[C@@H](CC(N)=O)C(=O)NC(C)(C)C(=O)N[C@@H](CCC(N)=O)C(=O)N[C@H](C(=O)N[C@@H](CC(C)C)C(=O)N[C@@H](C)C(=O)N[C@@H](CCC(N)=O)C(=O)N[C@H](C(N)=O)C(C)C)[C@@H](C)CC)[C@@H](C)O)[C@@H](C)CC)[C@@H](C)CC)C(C)C)C(C)C [compound 230] (Ac-IVLSLD[dV]PIKLK([AEEA-γGlu-C20 diacid])KILLEQEKQKKQREQAETN[Aib]QILAQV-NH2) | 30 | > 250 | 0.16 | −15 | −16 | 3 | 23
